According to patent US20250367111A1, “DELIVERY OF SUSTAINED LOCAL AND SYSTEMIC IMMUNOMODULATION” (Northeastern University, priority 2024, published 2025):

What was measured:
[1] = intratumoral; 40 patients with advanced metastatic solid tumors or lymphomas; cited from earlier work
TNBC = conditions: cited from earlier work
[2] = Blood cell count with Procyte Dx Analyzer after oral TLZ; type: in vivo; conditions: BRCA−/− breast cancer mice, indicative of bone marrow toxicity
Excerpt: PARPi have been limited due to induction of bone marrow toxicity.

[3] = tested on: mammary glands of BRCA1-deficient mice; assay: Cancer biomarkers (PCNA, γ-H2AX) in mammary glands of BRCA1-deficient mice; type: in vivo; conditions: mammary glands harvested 4 weeks after treatment
Procedure: InCeT-TLZ favorably alters cancer biomarkers compared with systemic administration or empty implants. Mammary glands were harvested 4 weeks after BRCA1-deficient mice were treated with implants (InCeT-TLZ or empty InCeT) or free TLZ. As shown in, over half of the epithelial cells in the mammary glands of mice treated with empty InCeT were positive for PCNA, confirming robust proliferation.

[4] = tested on: BRCA−/− model with conditional BRCA1/2, PTEN, and TP53 deletions (mFT3666); assay: Survival in BRCA−/− mOC model (mFT3666); type: in vivo, mice; conditions: free TLZ; control ~57 days
Procedure: Sustained PARP inhibition doubles survival in BRCA^−/− mOC model. Therapeutic efficacy was tested in vivo in a BRCA^−/− model with conditional BRCA1/2, PTEN, and TP53 deletions (mFT3666) that mimics late stage disseminated disease. Free TLZ slowed disease progression and extended median survival to ˜70 days, compared with control (˜57 days). These animals eventually developed severe ascites and had to be sacrificed. A InCeT-TLZ implant loaded with 50 μg of TLZ was injected into the peritoneal cavity using an 18 gauge needle every 25 days. Most of the InCeT-TLZ group of animals survived until 93 days, with some developing ascites.

[5] = tested on: Brca2−/−p53−/−R172H Pten−/− intraperitoneal disseminated metastatic ovarian cancer model; assay: Survival in intraperitoneal disseminated metastatic ovarian cancer model; type: in vivo; conditions: i.p.; 50 μg TLZ over 21 days (implant or equivalent dose by periodic injections)
Procedure: In a Brca2^−/−p53^−/−R172H Pten^−/− intraperitoneal disseminated metastatic ovarian cancer model, SMAART-TLZ i.p implants (50 μg TLZ release over 21 days) increased median survival to 92 days compared to periodic i.p injections of TLZ at the equivalent drug dose over 21 days (70 days median OS-FIG. 6A).

[6] = EMBRACA, cited from earlier work

Nc1ncnc2c1ncn2[C@@H]1O[C@@H]2COP(=O)([S-])O[C@@H]3[C@H](O)[C@@H](COP([O-])(=S)O[C@H]2[C@H]1O)O[C@H]3n1cnc2c(N)ncnc21.[Na+].[Na+] (stereo partly shown) [ADU-S100]
dose-limiting toxicities [1]: no dose-limiting toxicities

O=C(c1cc(Cc2n[nH]c(=O)c3ccccc23)ccc1F)N1CCN(C(=O)C2CC2)CC1 [olaparib]
overall response rate (ORR) (TNBC; human, in vivo): 59.9% | progression-free survival (PFS) (TNBC; vs. 4.2 months standard chemotherapy): 7 months

Cn1ncnc1[C@H]1c2n[nH]c(=O)c3cc(F)cc(c23)N[C@@H]1c1ccc(F)cc1 [TLZ, Talazoparib]
red blood cells [2]: decrease in red blood cells | reduction of PCNA+ cells [3]: ~50% | γ-H2AX expression [3]: but not free TLZ increased γ-H2AX expression | median survival [4]: ~70 days | median survival [5]: 70 days | patients with adverse events [6]: 65% | patients with adverse events needing dose reduction below the therapeutic level ([6]; of those patients): 53%
